Data from US8067036B2, “Gnetum extract” (Hosoda SHC Inc., priority 2004, dated 2011).

Assays:
[1] = DPPH radical scavenging (antioxidative action) test; format: biochemical; details: rank order among Gnetin C, Gnemonocide A, D
Procedure: After 6 hours, decreases of absorbance (absorbance difference) at 517 nm of these reaction solutions were measured.

[2] = tested on: hay bacillus, Escherichia coli, sake yeast, penicillium; assay: Antimicrobial action/effect (overall statement); format: cell-based; details: rank order among Gnetin C, Gnemonocide A, D

Gnemonocide A
order of scavenging radical action (antioxidative effect) to DPPH [1]: Gnetin C>Gnemonocide C≈Gnemonocide D>Gnemonocide A | order of antimicrobial action of the identified ingredients [2]: does not show the antimicrobial action

Gnemonocide C
order of scavenging radical action (antioxidative effect) to DPPH [1]: Gnetin C>Gnemonocide C≈Gnemonocide D>Gnemonocide A | order of antimicrobial action of the identified ingredients [2]: Gnetin C>Gnemonocide C≈Gnemonocide D

Gnemonocide D
order of scavenging radical action (antioxidative effect) to DPPH [1]: Gnetin C>Gnemonocide C≈Gnemonocide D>Gnemonocide A | order of antimicrobial action of the identified ingredients [2]: Gnetin C>Gnemonocide C≈Gnemonocide D
